Entries after “also recorded” stand apart in the source; their conditions may differ.
Columns and labels:
HRF [1] = experiment: HRF binding affinity of heptamer peptides by ELISA (alanine scan of p2); settings: p2 and its substituted heptamers m1-m7
Text: In order to confirm the residues involved in the HRF binding affinity of the heptamer peptide of the present invention, the amino acid sequence of p2 was substituted with alanine (A), and only m5 was substituted with lysine (K). As a result, the following sequences were established: […]

HRF [2] = experiment: Phage clone ELISA for binding to immobilized HRF; settings: wells coated with HRF or BSA (control)
Procedure: Particularly, HRF was dissolved in a coating buffer (0.1 M NaHCO 3, pH 8.6) at the concentration of 20 μg/ml, which was loaded in a polystyrene microtiter plate (50 ? /well), followed by coating at 4° C. for overnight and blocking non-specific binding with BSA. The plate was washed with 0.1% Tween/TBS (TBST) 6 times. […] The plate stood at room temperature for 1 hour. TBST was added thereto, and the plate stood for 5 minutes, followed by washing. The washing was performed once after one round of panning, 5 times after 2 and 3 rounds of panning, and 10 times after 4 rounds of panning. 50 ? of glycine/HCl buffer (pH 2.2) was added thereto, which stood for 5 minutes. Then, phages were eluted, and then neutralization was induced with 8 ? of 1 M Tris-HCl (pH 9.1). The eluted phage solution was added to 20 ? of ER2537 culture medium (OD600=0.5˜1), followed by culture in a 37° C. shaking incubator (rpm=200) for 2 hours. 100 ? of SB medium was added thereto, followed by culture for overnight with shaking (250 rpm). The culture solution was centrifuged at 10,000 rpm (4° C.) for 15 minutes. 100 ? of the obtained supernatant was added with 30 ? of 5×PEG/NaCl (20% PEG(w/v), 15% NaCl (w/v)), followed by dissolving for 5 minutes. The mixture was then left in ice for 30 minutes. The mixture was centrifuged at 10,000 rpm (4° C.) for 20 minutes and the supernatant was discarded. The obtained pellet was suspended in 1 ? of 3% BSA/TBS. After performing centrifugation at 14,000 rpm for 5 minutes, the supernatant was obtained and used for panning. Affinity purification and phage replication were repeated 4 times, followed by eluting phages. Each phage clone was obtained from the proper plate of the eluted phage, followed by ELISA. Those phage clones showing a specific affinity to HRF were separated, followed by sequencing to confirm the peptide sequence. Those phage display peptides showing dominant binding to HRF were selected and listed below:
That is, each phage plaque was added to 1 ? of the ER2537 culture medium (OD600=0.5˜1) cultured in SB medium, followed by culture in a 37° C. incubator (rpm=250) for 5 hours. 100 ? of each culture solution was added to 900 ? of SB medium, followed by culture for overnight. […]
Each phage solution separated above was diluted in an equal volume of 6% BSA/PBS, and 50 ? of the diluted solution was added to each well of the plastic well plate coated with HRF or BSA (control), which stood for 2 hours. […] After adding peroxidase substrate solution thereto (100 ? /well), OD405 was measured with an ELISA reader.
HRF was diluted serially by ⅕ fold each from the concentration of 20 μg/ ? […] The phage 2 solution diluted serially by ⅕ fold each (½, 1/10, 1/50, 1/250, and 1/1250 of the stock solution) was added thereto, followed by ELISA and OD405 was measured.

Del-N11dTCTP = molecular target: T1, Del-N11dTCTP (Rattus norvegicus, UniProt P63029); experiment: Inhibition of Del-N11dTCTP-induced IL-8 secretion by domain peptides in BEAS-2B cells; type: cell-based; settings: Del-N11dTCTP 70 nM, peptide molar ratios 0~1, 24 hours, ELISA
T1 construct: made in house
T1 sequence (P63029 11-172 limits assumed): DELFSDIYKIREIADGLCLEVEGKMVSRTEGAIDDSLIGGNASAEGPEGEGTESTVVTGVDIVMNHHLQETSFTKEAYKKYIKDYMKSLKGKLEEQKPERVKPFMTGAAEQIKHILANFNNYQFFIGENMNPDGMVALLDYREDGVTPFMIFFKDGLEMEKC
Procedure: To investigate inhibitory effect of FL domain, Helix 2 domain, and Helix 3 domain on Del-N11dTCTP, the inventors synthesized FL domain (Ac-[…]-NH2) (SEQ. ID. NO: 1), Helix 2 domain (Ac-[…]-NH2) (SEQ. ID. NO: 11), and Helix 3 domain (Ac-[…]-NH2) (SEQ. ID. NO: 22) by using the synthetic peptides prepared with NH2-terminal acetylation and COOH-terminal amidation, followed by purification.
Particularly, BEAS-2B cells were treated with Del-N11dTCTP (70 nM) by the same manner as described in Experimental Example 1. At this time, the synthesized FL domain, Helix 2 domain, and Helix 3 domain were treated to the cells at different molar ratios (0˜1), followed by reaction for 30 minutes. Then, Del-N11dTCTP was added thereto. 24 hours later, the supernatant was obtained and the released IL-8 was quantified by ELISA.

BEAS-2B cells [3] = experiment: IL-8 secretion by f-TCTP, Δ-dTCTP and Del-N11dTCTP in BEAS-2B cells; type: cell-based; settings: protein at 1, 5 or 10 μg/ml, 24 hours, ELISA
Procedure: (§1) To investigate the IL-8 and GM-CSF secretory activity of f-TCTP, Δ-dTCTP, and Del-N11dTCTP in BEAS-2B cells, the present inventors compared the activity of f-TCTP, Δ-dTCTP, and Del-N11dTCTP by measuring the secretion of IL-8 in BEAS-2B cells.
(§2) Particularly, BEAS-2B cells were cultured in a 48-well plate until the confluency reached to 70%. Then, the cells were washed with 1% penicillin-streptomycin/BEBM (Clonetics) twice. Each recombinant protein of the Δ-dTCTP separated in Example 1 of the invention, and the f-TCTP and Del-N11dTCTP constructed by the method described in Korean Patent Application No. 2006-0007663 was added thereto at the concentration of 1 μg/ ? , 5 μg/ ? , or 10 μg/ ? 24 hours later, the supernatant was obtained and the released IL-8 and GM-CSF were quantified by ELISA.

BEAS-2B cells [4] = experiment: GM-CSF secretion by f-TCTP, Δ-dTCTP and Del-N11dTCTP in BEAS-2B cells; type: cell-based; settings: protein at 1, 5 or 10 μg/ml, 24 hours, ELISA
Procedure: as §1, §2

[5] = test system: dTBP2 (dTCTP binding peptide 2); experiment: Affinity of TCTP proteins to immobilized biotinylated dTBP2 (ELISA); settings: biotinylated dTBP2 0.01-10 μm on streptavidin plate; protein 0.2 μg/ml; ELISA 450/570 nm
Procedure: To investigate the affinity to dTBP2 of f-TCTP, Δ-dTCTP, and Del-N11dTCTP of the present invention, biotin was conjugated to the COOH-terminus of dTBP2 known to bind to HRF, followed by purification. The purified protein was immobilized in the plastic well coated with streptavidin, to which f-TCTP, Δ-dTCTP, and Del-N11dTCTP were added. Then, the binding strength of each protein was investigated.
Particularly, 50 ? of the biotinylated dTBTP2 dissolved in a buffer (TBS [25 mM Tris, 150 mM NaCl, pH 7.2], 0.1% BSA, 0.05% Tween-20) at different concentrations of 0.01, 0.1, 1, and 10 μm was added to Reacti-Bind Streptavidin Coated Polystyrene Plates (PIERCE), followed by reaction at room temperature for 2 hours. The plate was washed with a washing buffer three times. Each of f-TCTP, Δ-dTCTP, and Del-N11dTCTP was dissolved in TBS at the concentration of 0.2 μg/ ? . 60 ? of the mixture was added to each well of the plate, followed by reaction for 1 hour. The plate was washed with a washing buffer three times. 100 ? of anti-HRF rabbit antibody (Bio-Rad) diluted in a buffer (1:2000) was added to each well of the plate, which stood at room temperature for 30 minutes. The plate was washed with a washing buffer three times and with TBS once, to which HRP-conjugated anti-rabbit antibody (1:2000) was added (100 ? /well), which stood at room temperature for 30 minutes. The plate was washed with a washing buffer three times and with TBS once, to which […] (PIERCE), the peroxydase substrate solution, was added (100 ? /well). Color development was measured at 450 nm and 570 nm using an ELISA reader (Bio-Rad), and affinity was determined by the difference.

WYAYPSM [m3]
HRF binding affinity (rank order) (HRF [1]): p2, m6>m7>m3>m2>fm5>M1>m4

LVTYPLP (IgE-dependent histamine-releasing factor binding peptide) [ph1, ID; NO: 23]
binding of phage clone to HRF (ELISA, OD405) (HRF [2]): specifically bind to HRF

WYVYPAM [m6]
HRF binding affinity (rank order) (HRF [1]): p2, m6>m7>m3>m2>fm5>M1>m4

WYVYKSM [m5]
HRF binding affinity (rank order) (HRF [1]): p2, m6>m7>m3>m2>fm5>M1>m4

AYVYPSM [m1]
HRF binding affinity (rank order) (HRF [1]): p2, m6>m7>m3>m2>fm5>M1>m4

WEFPGWM (IgE-dependent histamine-releasing factor binding peptide3) [ph4, ID; NO: 25]
binding of phage clone to HRF (ELISA, OD405) (HRF [2]): specifically bind to HRF

WAVYPSM [m2]
HRF binding affinity (rank order) (HRF [1]): p2, m6>m7>m3>m2>fm5>M1>m4

WYVAPSM [m4]
HRF binding affinity (rank order) (HRF [1]): p2, m6>m7>m3>m2>fm5>M1>m4

WYVYPSA [m7]
HRF binding affinity (rank order) (HRF [1]): p2, m6>m7>m3>m2>fm5>M1>m4

Ac-KPERVKPFMTGAAEQIKHILANFN-NH2 [Helix 3 domain, ID; NO: 22]
inhibition of IL-8 secretion induced by Del-N11dTCTP (Del-N11dTCTP): inhibited more strongly by FL domain and Helix 2 domain than by Helix 3 domain

f-TCTP: full-length TCTP, monomer form (SEQ. ID. NO: 17)
secretion of IL-8 (BEAS-2B cells [3]): Del-N11dTCTP was superior to f-TCTP and Δ-dTCTP
secretion of GM-CSF (BEAS-2B cells [4]): Del-N11dTCTP was superior to f-TCTP and Δ-dTCTP
affinity to dTBP2 [5]: Del-N11dTCTP had higher dTBP2 affinity than f-TCTP and Δ-dTCTP

B1: Δ-dTCTP: dimer form of FL domain-deleted TCTP (protein)
chain: MIIYRDLISHDEMFSDIYKIREIADGLCLEVEGKMVSGGITGVDIVMNHHLQETSFTKEAYKKYIKDYMKSIKGKLEEQRPERVKPFMTGAAEQIKHILANFKNYQFFIGENMNPDGMVALLDYREDGVTPYMIFFKDGLEMEKCLEHHHHHH
secretion of IL-8 (BEAS-2B cells [3]): Del-N11dTCTP was superior to f-TCTP and Δ-dTCTP
secretion of IL-8 (BEAS-2B cells [3]; listed as A-dTCTP): could not induce IL-8 secretion
secretion of GM-CSF (BEAS-2B cells [4]): Del-N11dTCTP was superior to f-TCTP and Δ-dTCTP
affinity to dTBP2 [5]: low affinity; also recorded: Del-N11dTCTP had higher dTBP2 affinity than f-TCTP and Δ-dTCTP

— US11518805B2, “Binding inhibitor between TCTP dimer type IgE-dependent histamine releasing factor and receptor thereof, and use thereof” (EWHA UNIVERSITY—INDUSTRY COLLABORATION FOUNDATION, priority 2014, dated 2022)
